Measured values: publication PMC11822212, “High-throughput screening identifies Aurora kinase B as a critical therapeutic target for Merkel cell carcinoma” (Nature Communications, 2025)

Experiments:
Assay type in all cases: cell-based, human
MKL-2 cells (VP-MCC) = assay: qHTS cell viability (CellTiter-Glo, 72 h; primary and follow-up small molecule screen); conditions: MKL2, 72h
UISO cells (VN-MCC) = assay: as above; conditions: UISO, 72h
MCC13 cells (VN-MCC) = assay: as above; conditions: MCC13, 72h
MKL-1 cells (VP-MCC) = assay: as above; conditions: MKL1, 72h
WAGA cells (VP-MCC) = assay: as above; conditions: WAGA, 72h
MCC26 cells (VN-MCC) = assay: as above; conditions: MCC26, 72h
[1] = tested on: VP-MCC cell lines (WAGA, MKL-1, MKL-2); assay: qHTS cell viability, VP-MCC cell lines as a group (mean AUC, VP.MCC.avg); conditions: re-tested in triplicate, follow-up screen
GDSC cancer cell lines = assay: Genomics of Drug Sensitivity in Cancer (GDSC) IC50 comparison across cancer cell lines; conditions: own IC50 estimates compared with public IC50 data
Description: Palo Alto, CA, USA) for these compounds from our small molecule screen. Following the graphing format in the GDSC database, compounds were ranked by IC50 and plotted in Rstudio using ggplot2, ggrepel, and scales packages. page 9: Supplementary Fig. S6. Au rora kinase inhibi tors mor e potentl y reduc e viability in VP-MCC than VN-MCC. […] Cell viability was measured by CellTiter- Glo at 72 h and by manual cell counts at 144 h. […] Consistent across n = 3 replicates . B) IC50 values (molar) for each aurora kinase inhibitor in each MCC cell line. […] IC50 values from GDSC (Gray-scale and green) were combined with IC50 values determined in our study (purple) and then ranked. n = number of experimental replicates for each cell line.

## CCn1cc(-c2ccnc3[nH]c(-c4cccc(CN(C)C)c4)cc23)c(-c2ccc(NC(=O)N(C)C)cc2)n1 [GSK-1070916A, reference compound]
MKL-2 cells (VP-MCC); Log (M) -5.33646
  Percent viability: 1.0%
MKL-2 cells (VP-MCC); Log (M) -5.81358
  Percent viability: 2.3%
MKL-2 cells (VP-MCC); Log (M) -6.2907
  Percent viability: 21.5%
MKL-2 cells (VP-MCC); Log (M) -6.76782
  Percent viability: 34.0%
MKL-2 cells (VP-MCC); Log (M) -7.24494
  Percent viability: 33.8%
MKL-2 cells (VP-MCC); Log (M) -7.72207
  Percent viability: 50.1%
MKL-2 cells (VP-MCC); Log (M) -8.19919
  Percent viability: 59.6%
MKL-2 cells (VP-MCC); Log (M) -8.67631
  Percent viability: 59.6%
MKL-2 cells (VP-MCC); Log (M) -9.15343
  Percent viability: 98.0%
MKL-2 cells (VP-MCC); Log (M) -9.63055
  Percent viability: 107.1%
MKL-2 cells (VP-MCC); Log (M) -10.1077
  Percent viability: 88.8%
UISO cells (VN-MCC); Log (M) -5.33646
  Percent viability: 0.3%
UISO cells (VN-MCC); Log (M) -5.81358
  Percent viability: 33.6%
UISO cells (VN-MCC); Log (M) -6.2907
  Percent viability: 52.9%
UISO cells (VN-MCC); Log (M) -6.76782
  Percent viability: 71.1%
UISO cells (VN-MCC); Log (M) -7.24494
  Percent viability: 86.6%
UISO cells (VN-MCC); Log (M) -7.72207
  Percent viability: 91.6%
UISO cells (VN-MCC); Log (M) -8.19919
  Percent viability: 90.7%
UISO cells (VN-MCC); Log (M) -8.67631
  Percent viability: 81.3%
UISO cells (VN-MCC); Log (M) -9.15343
  Percent viability: 106.7%
UISO cells (VN-MCC); Log (M) -9.63055
  Percent viability: 103.4%
UISO cells (VN-MCC); Log (M) -10.1077
  Percent viability: 104.7%
MCC13 cells (VN-MCC); Log (M) -5.33646
  Percent viability: 0.9%
MCC13 cells (VN-MCC); Log (M) -5.81358
  Percent viability: 37.2%
MCC13 cells (VN-MCC); Log (M) -6.2907
  Percent viability: 74.5%
MCC13 cells (VN-MCC); Log (M) -6.76782
  Percent viability: 88.4%
MCC13 cells (VN-MCC); Log (M) -7.24494
  Percent viability: 96.7%
MCC13 cells (VN-MCC); Log (M) -7.72207
  Percent viability: 113.8%
MCC13 cells (VN-MCC); Log (M) -8.19919
  Percent viability: 87.1%
MCC13 cells (VN-MCC); Log (M) -8.67631
  Percent viability: 100.5%
MCC13 cells (VN-MCC); Log (M) -9.15343
  Percent viability: 112.0%
MCC13 cells (VN-MCC); Log (M) -9.63055
  Percent viability: 98.4%
MCC13 cells (VN-MCC); Log (M) -10.1077
  Percent viability: 100.0%
MKL-1 cells (VP-MCC); Log (M) -5.33646
  Percent viability: 0.6%
MKL-1 cells (VP-MCC); Log (M) -5.81358
  Percent viability: 0.7%
MKL-1 cells (VP-MCC); Log (M) -6.2907
  Percent viability: 25.3%
MKL-1 cells (VP-MCC); Log (M) -6.76782
  Percent viability: 39.6%
MKL-1 cells (VP-MCC); Log (M) -7.24494
  Percent viability: 24.8%
MKL-1 cells (VP-MCC); Log (M) -7.72207
  Percent viability: 28.8%
MKL-1 cells (VP-MCC); Log (M) -8.19919
  Percent viability: 32.4%
MKL-1 cells (VP-MCC); Log (M) -8.67631
  Percent viability: 60.3%
MKL-1 cells (VP-MCC); Log (M) -9.15343
  Percent viability: 97.5%
MKL-1 cells (VP-MCC); Log (M) -9.63055
  Percent viability: 94.1%
MKL-1 cells (VP-MCC); Log (M) -10.1077
  Percent viability: 98.1%
WAGA cells (VP-MCC); Log (M) -5.33646
  Percent viability: 2.1%
WAGA cells (VP-MCC); Log (M) -5.81358
  Percent viability: 12.6%
WAGA cells (VP-MCC); Log (M) -6.2907
  Percent viability: 31.4%
WAGA cells (VP-MCC); Log (M) -6.76782
  Percent viability: 40.3%
WAGA cells (VP-MCC); Log (M) -7.24494
  Percent viability: 26.0%
WAGA cells (VP-MCC); Log (M) -7.72207
  Percent viability: 27.1%
WAGA cells (VP-MCC); Log (M) -8.19919
  Percent viability: 28.3%
WAGA cells (VP-MCC); Log (M) -8.67631
  Percent viability: 104.6%
WAGA cells (VP-MCC); Log (M) -9.15343
  Percent viability: 100.0%
WAGA cells (VP-MCC); Log (M) -9.63055
  Percent viability: 103.0%
WAGA cells (VP-MCC); Log (M) -10.1077
  Percent viability: 100.0%
MCC26 cells (VN-MCC); Log (M) -5.33646
  Percent viability: 11.3%
MCC26 cells (VN-MCC); Log (M) -5.81358
  Percent viability: 9.7%
MCC26 cells (VN-MCC); Log (M) -6.2907
  Percent viability: 42.5%
MCC26 cells (VN-MCC); Log (M) -6.76782
  Percent viability: 75.5%
MCC26 cells (VN-MCC); Log (M) -7.24494
  Percent viability: 88.6%
MCC26 cells (VN-MCC); Log (M) -7.72207
  Percent viability: 92.0%
MCC26 cells (VN-MCC); Log (M) -8.19919
  Percent viability: 93.6%
MCC26 cells (VN-MCC); Log (M) -8.67631
  Percent viability: 92.5%
MCC26 cells (VN-MCC); Log (M) -9.15343
  Percent viability: 92.1%
MCC26 cells (VN-MCC); Log (M) -9.63055
  Percent viability: 87.6%
MCC26 cells (VN-MCC); Log (M) -10.1077
  Percent viability: 89.3%
[1]
  VP-MCC viability (in words): consistently and potently reduced VP-MCC viability
GDSC cancer cell lines
  potency in VP-MCC cell lines versus other human cancer cell lines (GDSC): higher in VP-MCC cell lines than in hundreds of other human cancer cell lines
